From the supplement of paper PMC5908809

Columns and labels:
[1] = system: normal NK cells expanded with K562-aAPC; test: percent inhibition of viability; higher = more inhibition; conditions: 72 h, IL-2 2.5 ng/mL
Description: (§1)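 Drug sensitivity and resistance testing on K562-aAPC-expanded normal NK cells: 5 concentrations (10-fold steps over a 10,000-fold range), 72 h at 37 °C, viability by CellTiter-Glo normalised to DMSO and benzethonium chloride controls; DSS from the fitted curve.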

[2] = system: normal primary NK cells, pool 2 (3 donors) (IL-2 2.5 ng/mL); test: as above; conditions: 72 h
[3] = system: YT (IL-2 2.5 ng/mL); test: as above; conditions: 72 h
[4] = system: SNK-6 (IL-2 2.5 ng/mL); test: as above; conditions: 72 h
[5] = system: IMC-1 (IL-2 20 ng/mL); test: as above; conditions: 72 h
[6] = system: DERL-7 (IL-2 2.5 ng/mL); test: as above; conditions: 72 h
[7] = system: KAI3 (IL-2 2.5 ng/mL); test: as above; conditions: 72 h
[8] = system: normal primary NK cells, pool 1 (3 donors), resting (IL-2 0 ng/mL); test: as above; conditions: 72 h
[9] = system: normal primary NK cells, pool 1 (3 donors) (IL-2 2.5 ng/mL); test: as above; conditions: 72 h
[10] = system: normal primary NK cells, pool 3 (3 donors) (IL-2 2.5 ng/mL); test: as above; conditions: 72 h
[11] = system: NKL (IL-2 2.5 ng/mL); test: as above; conditions: 72 h
[12] = system: KHYG-1 (IL-2 2.5 ng/mL); test: as above; conditions: 72 h
[13] = system: NK-YS (IL-2 2.5 ng/mL); test: as above; conditions: 72 h
[14] = system: NK-92 (IL-2 2.5 ng/mL); test: as above; conditions: 72 h
[15] = system: normal primary NK cells, pool 2 (3 donors) (IL-2 2.5 ng/mL); test: drug sensitivity score (DSS) (DSS units); higher = more sensitive; extreme values may be limits of the assay; conditions: 72 h
[16] = system: YT (IL-2 2.5 ng/mL); test: as above; conditions: 72 h
[17] = system: SNK-6 (IL-2 2.5 ng/mL); test: as above; conditions: 72 h
[18] = system: IMC-1 (IL-2 20 ng/mL); test: as above; conditions: 72 h
[19] = system: DERL-7 (IL-2 2.5 ng/mL); test: as above; conditions: 72 h
[20] = system: KAI3 (IL-2 2.5 ng/mL); test: as above; conditions: 72 h
[21] = system: normal primary NK cells, pool 1 (3 donors), resting (IL-2 0 ng/mL); test: as above; conditions: 72 h
[22] = system: normal primary NK cells, pool 1 (3 donors) (IL-2 2.5 ng/mL); test: as above; conditions: 72 h
[23] = system: normal primary NK cells, pool 3 (3 donors) (IL-2 2.5 ng/mL); test: as above; conditions: 72 h
[24] = system: NKL (IL-2 2.5 ng/mL); test: as above; conditions: 72 h
[25] = system: KHYG-1 (IL-2 2.5 ng/mL); test: as above; conditions: 72 h
[26] = system: NK-YS (IL-2 2.5 ng/mL); test: as above; conditions: 72 h
[27] = system: NK-92 (IL-2 2.5 ng/mL); test: as above; conditions: 72 h
[28] = system: normal NK cells expanded with K562-aAPC; test: as above; conditions: 72 h; IL-2 2.5 ng/mL
Description: as §1

Cn1c(=O)n(-c2ccc(C(C)(C)C#N)cc2)c2c3cc(-c4cnc5ccccc5c4)ccc3ncc21 [Dactolisib] (max concentration tested 1000 nM)
percent inhibition of viability [%]
Conditions	0.1 nM	1 nM	10 nM	100 nM	1000 nM
[1]	-4.3	-1.75	17.1	38.2	57.6
[2]	-5.46	9.09	17.1	37.6	57.4
[3]	-3.01	-5.11	15.7	57.6	80.4
[4]	-7.98	-26.8	2.13	46.8	52.4
[5]	-8.09	0.4	-15.1	8.63	56.9
[6]	0.52	16	38.7	79.4	84.9
[7]	-4.23	-6.61	24.4	68.8	75.8
[8]	-1.73	24	24.7	38.7	40.6
[9]	-5.56	16	21.4	45	38.5
[10]	-3.41	6.19	15.4	16.5	43.5
[11]	-13.1	-9.35	36.5	69.7	76.1
[12]	-4.3	-5.69	3.3	74.9	90.8
[13]	0.2	-0.12	24.7	63.3	82.3
[14]	-5.17	-0.09	27.1	63.9	70.8

Conditions	drug sensitivity score
[15]	9.12
[16]	12.7
[17]	8.78
[18]	4.51
[19]	19.6
[20]	15.9
[21]	11.8
[22]	10.6
[23]	4.8
[24]	18.6
[25]	14.2
[26]	14.8
[27]	15.2
[28]	8.96

C[C@@H](C(=O)O)c1ccc(-c2ccccc2)c(F)c1 [Tarenflurbil] (max concentration tested 10000 nM)
percent inhibition of viability [%]
Conditions	1 nM	10 nM	100 nM	1000 nM	10000 nM
[1]	-6.17	-4.88	-3.95	0.95	3.26
[2]	-7.01	3.47	9.98	6.83	1.08
[3]	-2.12	-10.1	2.14	4.49	14.9
[4]	-1.12	-28.7	-23.7	-16.9	14.1
[5]	-1.05	0.62	-1.4	-6.55	2.74
[6]	4.46	2.02	-0.14	2.03	-3.24
[7]	-7.87	-7.47	3.52	11.2	23.6
[8]	-0.07	18.2	4.52	11.8	8.75
[9]	2	12.8	9.24	3.23	7.48
[10]	-14.1	-0.87	-2.01	-2.07	2.43
[11]	-0.03	-4.97	19.8	21.7	16.2
[12]	-3.32	-5.74	0.55	-0.63	6.21
[13]	-4.2	-2.88	4.93	1.37	11.5
[14]	-0.98	-4.75	-2.63	14.7	23.1

Conditions	drug sensitivity score
[15]	0
[16]	0.47
[17]	0.04
[18]	0
[19]	0
[20]	1.72
[21]	0.07
[22]	0
[23]	0
[24]	5.13
[25]	0
[26]	0.07
[27]	2.36
[28]	0

C[C@]12C=CC(=O)C=C1CC[C@@H]1[C@@H]2[C@@H](O)C[C@@]2(C)[C@H]1CC[C@]2(O)C(=O)CO [Prednisolone] (max concentration tested 10000 nM)
percent inhibition of viability [%]
Conditions	1 nM	10 nM	100 nM	1000 nM	10000 nM
[1]	-2.45	5	39.2	57.3	63.9
[2]	-6.45	-3.01	28.6	51.2	65
[3]	-0.96	6.16	13.1	20.2	18.8
[4]	5.43	22.4	7.45	10.2	35.9
[5]	-3.99	-3.97	-9.73	-19.4	-17
[6]	-5.13	1.92	70	98	99.5
[7]	-9.17	-13.6	-7.78	-7.77	-8.06
[8]	4.52	3.57	56.8	80.2	89.9
[9]	1.14	10.2	27.4	63.4	78.3
[10]	-9.31	-4.01	13.1	36.8	47.6
[11]	3.58	12	48.8	51.4	55.3
[12]	-5.42	-2.27	10.1	29.8	34.5
[13]	-2.75	-1.1	-1.97	-1.53	5.33
[14]	-16	-15.5	-34.4	-24.4	-24.4

Conditions	drug sensitivity score
[15]	13.2
[16]	3.72
[17]	4.24
[18]	0
[19]	26.2
[20]	0
[21]	23
[22]	15.3
[23]	8.07
[24]	17.5
[25]	6.17
[26]	0
[27]	0
[28]	16.2

O=C(CCCCCCC(=O)Nc1ccc([C@H]2O[C@@H](CSc3nc(-c4ccccc4)c(-c4ccccc4)o3)C[C@@H](c3ccc(CO)cc3)O2)cc1)NO [Tubacin] (max concentration tested 10000 nM)
percent inhibition of viability [%]
Conditions	1 nM	10 nM	100 nM	1000 nM	10000 nM
[1]	-0.3	4.86	3.67	7.82	40.4
[2]	-4.13	-4.61	0.44	0.6	24
[3]	0.56	0.68	3.58	5.84	88.3
[4]	-5.06	2.23	22.3	16.9	89.8
[5]	-1.32	0.91	3.12	6.34	99
[6]	-2.36	4.2	7.74	19.8	86.6
[7]	-2.25	-0.51	-0.15	12	87.7
[8]	-6.72	-11.8	5.02	-11.8	77.7
[9]	2.38	1.13	3.02	-4.6	47.5
[10]	-6.56	-3.63	5.33	-0.47	15.8
[11]	-14.5	-0.93	-1.27	28.3	86.2
[12]	-2.84	-3.16	1.24	0.88	84.9
[13]	-6.18	-3.18	-0.57	4.16	93.2
[14]	-7.58	4.48	12.8	18.2	74.3

Conditions	drug sensitivity score
[15]	0.95
[16]	5.78
[17]	7.71
[18]	6.44
[19]	7.93
[20]	6.87
[21]	3.59
[22]	2.14
[23]	0.27
[24]	8.82
[25]	4.84
[26]	5.76
[27]	6.62
[28]	3.3
